Entries after “also recorded” stand apart in the source; their conditions may differ. Marks after values point to notes of the source that are not given here.
Assays:
[1] = Oral exposure (pharmacokinetics) in rats; type: in vivo, male Sprague Dawley rats; conditions: rat
Method: To compare the exposure of the compound of Formula I in male Sprague Dawley rats following oral administration of the free base and L-tartrate salt at a target dose of 20 mg/kg (as free base equivalent).
Further details of the in-life, formulation and bioanalytical procedures together with the data analysis, are described in Appendix 1.
In-Life • The exposure of Formula I was studied in overnight-fasted male Sprague Dawley rats that had access to water ad libitum throughout the pre- and post-dose sampling period, and access to food was re-instated 4 h post-dose. In-life details are provided in Table A1-1. • Samples of arterial blood and total urine were collected up to 48 h post-dose. Arterial blood was collected directly into borosilicate vials (at 4° C.) containing heparin, Complete® (a protease inhibitor cocktail) and potassium fluoride to minimise potential for ex vivo degradation of Formula I in blood/plasma samples. Once collected, blood samples were centrifuged, supernatant plasma was removed and stored frozen (−80° C.) until analysis by LC-MS.
The extraction of the test compound from plasma samples was conducted using protein precipitation with acetonitrile. Both solution and plasma standards were freshly prepared, with each set of standards comprising at least seven different analyte concentrations. Solution standards were diluted from a stock solution (1 mg/mL in DMSO) with 50% acetonitrile in water. Plasma standards were prepared by spiking blank plasma (50 μL) with solution standards (10 μL) and the internal standard, diazepam (10 μL, 5 μg/mL).
Plasma samples were similarly prepared, except that blank acetonitrile (10 μL) was added instead of solution standards. Protein precipitation was carried out by the addition of acetonitrile (120 μL), vortexing (20 s) and centrifugation (10,000 rpm) in a microcentrifuge for 3 minutes. The supernatant was subsequently separated and 3 μL injected directly onto the column for LC/MS analysis using conditions tabulated below. All plasma concentrations are expressed as the non-salt equivalent.
Standard Calculations • Plasma concentration versus time data were analysed using non-compartmental methods (PKSolver Version 2.0). Standard calculations for each pharmacokinetic parameter are listed below.
[formula] • AUCIV Area under the plasma concentration versus time profile from time zero to infinity after IV administration (reported previously: CDCO_FAK_11_031) • t1/2 Elimination half-life • λ2 Terminal elimination rate constant after IV administration • BA Oral bioavailability • AUCoral Area under the plasma concentration versus time profile from time zero to infinity after oral administration • Cmax Maximum plasma concentration observed after oral administration. • Tmax Time to achieve Cmax • Differences in pharmacokinetic parameters (t½, AUC, Cmax, Tmax and BA) between free base and L-tartrate salt were evaluated using an unpaired t-test testing for significance at α=0.05 (GraphPad Prism, version 7.01)

[2] = Thermodynamic solubility studies; type: physicochemical; conditions: for HPLC Conc: ca. 22° C.
Method: Thermodynamic Solubility Studies were carried out as follows: • Approximately 10 mg of Formula I free base Pattern 1 and L-tartrate Pattern 1, were weighed into a 1.5 mL screw-cap vial. The appropriate buffer system was added to create a slurry and the vials were shaken at ambient temperature (ca. 22° C.) for approximately 24 hours. • After this time, the slurries were transferred to centrifuge tubes containing nylon filters (0.22 μm) and filtered using a centrifuge for ca. 10 minutes. The isolated solids were then analyzed by XRPD and the filtrates measured by a pH meter and analyzed by HPLC for concentration.

[3] = Dynamic/gravimetric vapour sorption (DVS/GVS) hygroscopicity; type: physicochemical; conditions: for Hygroscopicity, mass uptake (DVS/GVS): at 90% R.H., 25° C.
Method: Approximately 10-20 mg of sample was placed into a mesh vapour sorption balance pan and loaded into the DVS-1 dynamic vapour sorption balance by Surface Measurement Systems. The sample was subjected to a ramping profile from 40-90% relative humidity (RH) at 10% increments, maintaining the sample at each step until a stable weight had been achieved (dm/dt 0.004%, minimum step length 30 minutes, maximum step length 500 minutes) at 25° C. After completion of the sorption cycle, the sample was dried using the same procedure to 0% RH and then a second sorption cycle back to 40% RH. Two cycles were performed. The weight change during the sorption/desorption cycles were plotted, allowing for the hygroscopic nature of the sample to be determined. XRPD analysis was then carried out on any solid retained.
Approximately 10-20 mg of sample was placed into a mesh vapour sorption balance pan and loaded into an IGASorp Moisture Sorption Analyser balance by Hiden Analytical. The sample was subjected to a ramping profile from 40-90% relative humidity (RH) at 10% increments, maintaining the sample at each step until a stable weight had been achieved (98% step completion, minimum step length 30 minutes, maximum step length 60 minutes) at 25° C. After completion of the sorption cycle, the sample was dried using the same procedure to 0% RH, and finally taken back to the starting point of 40% RH. Two cycles were performed. The weight change during the sorption/desorption cycles were plotted, allowing for the hygroscopic nature of the sample to be determined.

[4] = Salt disproportionation studies; type: physicochemical; conditions: for XRPD Result: solid after 24 h in deionized water
Method: Salt disproportionation studies were carried out as follows: • Approximately 10-20 mg of Formula I free base, L-tartrate Pattern 1 were weighed into HPLC vials. • 1 mL deionized water was then added to each vial and the vials capped and shaken at ambient temperature for 24 hours. • After this time, the samples were transferred to centrifuge tubes with nylon filters (0.22 μm) and centrifuged for approximately 15 minutes. The isolated solids were analyzed by XRPD and the filtrates analyzed by HPLC for concentration determination and the pH of all the filtrates were measured with a pH meter.

7-day stability study = type: physicochemical; conditions: for XRPD / HPLC Purity: 1 week; for HPLC Purity: input purity 99.8%
Method: 7-day stability tests were carried out as follows: • Approximately 10-20 mg of Formula I L-tartrate Pattern 1 was placed at either 40° C./75% RH, 80° C. or under ambient light and temperature for 1 week. The resulting solids were analyzed by XRPD to assess the physical stability and HPLC to assess the chemical stability.

[5] = PO 20 mg/kg (free base equivalent), mean ± SD, n = 3, listed as L-Tartrate salt, 20 mg/kg
[6] = listed as Formula I L-tartrate Pattern 1

With `COc1cc(C2CCN(C)CC2)ccc1Nc1ncc(C(F)(F)F)c(CCc2ccccc2CC(N)=O)n1` [L-Tartrate] as the molecule, how does the “Apparent t1/2” value [1, 5] read?
Its value is 5.8 ± 0.2 h.

What about the BA [1, 5] of the same molecule?
The BA was 71.3 ± 7.5 %.

What about the “Plasma AUC0-inf” value [1, 5] of the same molecule?
The value was 14.6 ± 1.5* h*μM.

And the Tmax [1, 5]?
Its Tmax is 5.7 ± 1 h.

And the Cmax ([1]; PO 20 mg/kg (free base equivalent), mean ± SD, n = 3, listed as L-Tartrate salt, 20 mg/kg, read-out: Plasma Cmax)?
Its Cmax is 1200 ± 300 nM.

What about the “Cmax greater than the free base” value ([1]; PO 20 mg/kg) of the same molecule?
Its value is “approximately 30%”.

And the “Plasma AUC compared with the free base” value ([1]; PO 20 mg/kg)?
Its value is “significantly higher”.

What about the “Adverse reactions or compound-related side effects” value ([1]; PO 20 mg/kg, 48 h sampling period) of the same molecule?
Its value is “No adverse reactions or compound-related side effects were observed”.

What about the “% Dose in urine (unchanged Formula I)” value ([1]; PO 20 mg/kg, pooled urine up to 48 h, listed as L-Tartrate salt, 20 mg/kg) of the same molecule?
Its value is 0.341 ± 0.042%.

What about the “AUC greater than the free base” value ([1]; PO 20 mg/kg, P<0.05) of the same molecule?
Its value is about 50%.

And the “N-demethylation metabolite of Formula I” value ([1]; plasma and urine after PO 20 mg/kg, not quantified)?
Its value is “detected in plasma and urine”.

What about the “Thermodynamic Solubility” value ([2]; Water) of the same molecule?
The value was 900 µg/mL.

And the “Thermodynamic Solubility” value ([2]; pH 1.0)?
The value was 300 µg/mL.

And the “HPLC Conc” value ([2]; pH 1.0, 24 h slurry)?
The value was 0.3 mg/mL.

What about the “XRPD Result” value ([2]; pH 1.0, solid after 24 h slurry, listed as L-Tartrate Pattern 1) of the same molecule?
Its value is “Possible HCl salt”.

What about the “XRPD Result” value ([2]; pH 1.0, solid after 24 h slurry, listed as L-tartrate Pattern 1) of the same molecule?
Its value is “possible HCl salt”.

What about the “pH Post-24 h Slurry” value ([2]; pH 1.0, listed as L-Tartrate Pattern 1) of the same molecule?
Its value is 1.87.

What about the “Thermodynamic Solubility” value ([2]; pH 4.5) of the same molecule?
Its value is 300 µg/mL.

What about the “HPLC Conc” value ([2]; pH 4.5, 24 h slurry, listed as L-Tartrate Pattern 1) of the same molecule?
Its value is 0.3 mg/mL.

And the “XRPD Result” value ([2]; pH 4.5, solid after 24 h slurry, listed as L-Tartrate Pattern 1)?
The value was “Pattern 2”.

And the “pH Post-24 h Slurry” value ([2]; pH 4.5, listed as L-Tartrate Pattern 1)?
The value was 3.99.

What about the “Thermodynamic Solubility” value ([2]; pH 6.8) of the same molecule?
Its value is 200 µg/mL.

What about the “HPLC Conc” value ([2]; pH 6.8, 24 h slurry) of the same molecule?
Its value is 0.2 mg/mL.

What about the “HPLC Conc” value ([2]; pH 6.8, 24 h slurry, listed as L-Tartrate Pattern 1) of the same molecule?
Its value is 0.2 mg/mL.

What about the “XRPD Result” value ([2]; pH 6.8, solid after 24 h slurry, listed as L-Tartrate Pattern 1) of the same molecule?
The value was “Pattern 2”.

What about the “pH Post-24 h Slurry” value ([2]; pH 6.8, listed as L-Tartrate Pattern 1) of the same molecule?
Its value is 4.43.

What about the “HPLC Conc” value ([2]; water, 24 h slurry, listed as L-Tartrate Pattern 1) of the same molecule?
The value was 0.9 mg/mL.

What about the “XRPD Result” value ([2]; water, solid after 24 h slurry, listed as L-Tartrate Pattern 1) of the same molecule?
The value was “Pattern 2”.

And the “pH Post-24 h Slurry” value ([2]; water, listed as L-Tartrate Pattern 1)?
The value was 3.43.

And the “Post-GVS XRPD” value ([3]; after GVS humidity cycles, listed as Formula I L-tartrate Pattern 1)?
Its value is “no changes to the XRPD pattern; also recorded: no change in form”.

What about the “Hygroscopicity, mass uptake (DVS/GVS)” value [3] of the same molecule?
The value was “Uptake of 0.6 wt %”.

And the “Hygroscopicity, mass uptake (DVS/GVS)” value [3, 6]?
Its value is 0.6 wt %.

And the “Hygroscopic nature by GVS analysis” value ([3]; up to 90% RH)?
The value was “slightly hygroscopic”.

And the Salt disproportionation ([4]; deionized water, 24 h)?
The Salt disproportionation was “no evidence of disproportionation”.

What about the “Water pH Post-24 h” value ([4]; deionized water, 24 h, ambient temperature, listed as L-Tartrate Pattern 1) of the same molecule?
The value was 3.43.

What about the “XRPD Result” value [4, 6] of the same molecule?
Its value is “L-tartrate Pattern 2”.

And the “XRPD Result” value ([4]; listed as L-Tartrate Pattern 1)?
The value was “L-Tartrate Pattern 2”.

And the XRPD (7-day stability study; 40° C./75% RH)?
The XRPD was “Pattern 1”.

What about the “HPLC Purity” value (7-day stability study; 40° C./75% RH) of the same molecule?
The value was 99.6 % Area.

And the XRPD (7-day stability study; 80° C.)?
Its XRPD is “Pattern 1”.

And the “HPLC Purity” value (7-day stability study; 80° C.)?
Its value is 99.3 % Area.

And the XRPD (7-day stability study; Ambient temperature and light)?
Its XRPD is “Pattern 1”.

What about the “HPLC Purity” value (7-day stability study; Ambient temperature and light) of the same molecule?
The value was 99.5 % Area.

And the “Stability under accelerated conditions” value (7-day stability study; one week, ambient temperature and light, 40° C./75% RH and 80° C.)?
The value was “considered stable”.

Reference: US12466807B2, “Salt and crystal form of a FAK inhibitor” (Amplia Therapeutics Limited, priority 2019, dated 2025)
